Reference: patent publication US20090176870A1, “TGF-BETA MODULATORS AND METHODS FOR USING THE SAME” (MARSHFIELD CLINIC, priority 2005, published 2009)

Assays:
[1] = Precipitate formation / solubility; format: physicochemical; conditions: for Solubility: Table 3; for precipitate formation when diluted into water: room temperature, centrifugation at 17,000×G
^125I labeled TGF-β1 = ^125I labeled TGF-β1 (Homo sapiens, UniProt P01137); experiment: 125I labeled TGF-β1 remaining in solution after incubation with compound and centrifugation; conditions: for Amount of ^125I labeled TGF-β1 in solution: 0.5 μL compound in 100 μL DMEM, 0.2% FBS overnight, 90 μL supernatant counted
Method: About 10 μL of ^125I labeled TGF-β1 (22.78 μCi/ml, 6.3 pmole/ml) was incubated with 0.5 μL of the compound in 100 μL of DMEM, 0.2% FBS overnight and then centrifuged. […] However, for compound NSC 119889 there was approximately a 40% increase in the amount of ^125I that remained in solution relative to the control. While this might be due to the compound decreasing adherence of TGF-β to the microcentrifuge tube, the lack of precipitation of the ^125I labeled TGF-β is consistent with the compounds blocking interaction of TGF-β1 with the receptor possibly by direct interaction with the receptor.

[2] = test system: TGF-β1 growth inhibition of Mv1Lu cells; experiment: Mv1Lu growth inhibition assay with TGF-β1; format: cell-based, mink; conditions: TGF-β1 1.5 ng/mL serially diluted to 0.095 ng/mL with compound, FIGS. 4A-4D
Method: Mv1Lu cells were purchased from ATCC. Growth inhibition assays for Mv1Lu and CHO cells were performed as described by Danielpour et al., in J. Cell. Physiol., 1989, 138, 79-86, using 0.2% fetal bovine serum to limit binding proteins present in serum. Mv1Lu cells were cultured in the presence of a standard TGF-β dilution curve starting at 1.5 ng/mL and serially diluted to 0.047 ng/mL or in the presence of TGF-β1 (1.5 ng/mL serially diluted to 0.095 ng/mL) with the compound. For each tested compound, one assay contained only the compound and no added TGF-β1.

[3] = test system: TGF-β1 activity in CHO cells carrying the plasmid pTARE-Luc; experiment: pTARE luciferase reporter assay in CHO cells; format: cell-based, Chinese hamster; conditions: compound 1 μL/mL with added TGF-β1 25 ng/mL, FIG. 2B
Method: The pTARE luciferase reporter system was purchased from Stratagene (La Jolla, Calif.) and transfected into CHO (Chinese Hamster Ovary) cells that were purchased from ATCC (American Type Culture Collection). The plasmid pSV2neo was co-transfected with pTARE at a 40 fold lower concentration to allow for selection of colonies that received plasmid DNA using G418. Luciferase assays were performed as described using Luciferase assay system and reporter lysis buffer (Promega, Madison, Wis.). Luciferase was quantitated using a luminometer (Turner Designs, Inc., Sunnyvale, Calif.).
Compounds of Table 1 (see Example 1 above) were further tested for their ability to modulate TGF-β1 activity. Briefly, the CHO cells carrying the plasmid pTARE-Luc were treated either with each compound individually (1 μL/mL) or with added TGF-β1 (25 ng/mL). Without being bound by any theory, it is believed that testing the compound by itself in this assay allows the identification of candidate TβRII agonists while testing the chemical in the presence of TGF-β1 allows the identification of candidate TGF-β1 antagonists.

[4] = test system: TGF-β1 stimulated growth of CHO cells; experiment: CHO cell growth stimulation by TGF-β1; format: cell-based, Chinese hamster; conditions: 1 L (FIG. 5A) and 2 μL (FIG. 5B) of blocking compound
Method: (§1) Mv1Lu cells were purchased from ATCC. Growth inhibition assays for Mv1Lu and CHO cells were performed as described by Danielpour et al., in J. Cell. Physiol., 1989, 138, 79-86, using 0.2% fetal bovine serum to limit binding proteins present in serum.

CHO cells = experiment: CHO cell growth, tritiated thymidine incorporation; format: cell-based, Chinese hamster; conditions: for amount of radioactivity incorporated into CHO cells: tritiated thymidine
Method: as §1
Chinese hamster ovarian (i.e., CHO) cells were cultured in the presence of compounds and tested for growth in the presence of tritiated thymidine. […] The reported value is the average of duplicate assays.

TβRIII = target: T1, TβRIII (Homo sapiens, UniProt Q03167); experiment: Soluble TβRIII receptor assay with 125I labeled TGF-β1; format: binding; conditions: for Amount of ^125I labeled TGF-β1 bound to TβRIII: soluble receptor assay, control 25048
T1 construct: purchased R&D Systems
T1 sequence (Q03167 21-787 limits assumed): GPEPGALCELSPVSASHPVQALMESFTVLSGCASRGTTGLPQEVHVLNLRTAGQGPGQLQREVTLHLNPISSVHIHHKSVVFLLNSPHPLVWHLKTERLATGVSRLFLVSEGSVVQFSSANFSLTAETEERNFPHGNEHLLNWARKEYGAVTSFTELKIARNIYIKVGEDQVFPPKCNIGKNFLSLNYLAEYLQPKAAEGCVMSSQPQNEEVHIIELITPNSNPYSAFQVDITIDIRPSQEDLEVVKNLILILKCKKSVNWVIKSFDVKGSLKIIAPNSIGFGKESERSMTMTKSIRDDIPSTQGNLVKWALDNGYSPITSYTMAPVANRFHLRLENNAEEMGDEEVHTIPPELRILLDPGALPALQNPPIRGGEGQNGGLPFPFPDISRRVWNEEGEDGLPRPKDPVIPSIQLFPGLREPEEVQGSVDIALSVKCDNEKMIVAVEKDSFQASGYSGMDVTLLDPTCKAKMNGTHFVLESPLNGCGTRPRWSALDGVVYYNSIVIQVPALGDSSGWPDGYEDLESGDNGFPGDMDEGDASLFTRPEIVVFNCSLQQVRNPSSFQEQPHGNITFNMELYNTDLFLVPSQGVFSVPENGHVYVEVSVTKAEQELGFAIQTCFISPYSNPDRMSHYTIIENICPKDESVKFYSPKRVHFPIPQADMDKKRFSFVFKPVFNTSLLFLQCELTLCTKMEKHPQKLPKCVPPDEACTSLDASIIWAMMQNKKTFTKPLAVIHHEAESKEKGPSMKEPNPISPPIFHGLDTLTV
Method: The compound NSC 119889 and related molecules also block soluble TGF-β receptor type III (TβRIII). TβRIII binds TGF-β1 and TGF-β2 and is involved in presenting TGF-β2 to TβRII. […] TβRIII was purchased from R&D Systems (Minneapolis, Minn.). It was used at concentration of 500 ng/mL in the soluble receptor assay when Immulon 2HB plates were used and at 1 μg/mL when Immulon 1B plates were used.

TβRII = target: T2, TβRII (Homo sapiens, UniProt P37173); experiment: Soluble TβRII binding assay with 125I labeled TGF-β1; conditions: I-125 TGF-β1, increasing concentration of competitor, FIG. 6
T2 construct: purchased R&D Systems
Method: Immulon 1B or 2 HB 96 well plates (Dynex Technologies, Inc., Chantilly, Va.) were coated with 100 μL/well of 500 ng/mL TβRII (R&D Systems, Minneapolis, Minn.) in phosphate buffered saline overnight at 4° C. and then blocked for 1 hr with 150 μL/well of 1% bovine serum albumin, 150 mM NaCl, 100 mM tris-HCl, pH 7.6. Following washing with PBS/0.05% Tween 20 (wash buffer, i.e., “WB”) samples were serially diluted in 1 mg/mL BSA, 0.15 M NaCl, 100 mM tris-HCl, pH 7.6, 0.05% Tween 20 containing 5 ng/mL of ^125I labeled TGF-β1 as described by Frolik et al., in J. Biol. Chem., 1984, 259, 10995-11000. Samples were incubated in the wells with TβRII for one hour at room temperature and then the plates were washed with WB. Individual wells were separated and counted.
To identify novel organic chemicals that block TGF-B activity, about 30,000 chemicals from the National Cancer Institute Developmental Therapeutics program open repository were screened. This repository contains about 140,000 chemicals. For screening, soluble TBRII was attached to an immulon 2 HB plate and then blocked with BSA. About 1 μL of each test chemical was diluted from the stock plate into 125 μL of dilution buffer containing 5 ng/mL I-125 labeled TGF-β1. In some cases, 1 μL of four chemicals each was combined to allow higher throughput. […]

Sequence of ^125I labeled TGF-β1 (P01137 279-390 limits assumed): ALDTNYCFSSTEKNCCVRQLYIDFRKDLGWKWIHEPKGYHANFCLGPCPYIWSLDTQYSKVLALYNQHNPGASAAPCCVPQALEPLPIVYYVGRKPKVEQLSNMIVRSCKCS
T2 sequence (P37173 23-166 limits assumed, species assumed): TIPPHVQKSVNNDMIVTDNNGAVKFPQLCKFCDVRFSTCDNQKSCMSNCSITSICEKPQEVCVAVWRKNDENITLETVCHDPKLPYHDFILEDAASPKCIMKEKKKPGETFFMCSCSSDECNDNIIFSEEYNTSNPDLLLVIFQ

| Compound | Solubility [1] | precipitate formation when diluted into water [1] | Amount of ^125I labeled TGF-β1 in solution (^125I labeled TGF-β1; second value column) | Amount of ^125I labeled TGF-β1 in solution (^125I labeled TGF-β1; third value column) | Amount of ^125I labeled TGF-β1 in solution (^125I labeled TGF-β1; first value column) | Amount of ^125I labeled TGF-β1 bound to TβRIII (TβRIII) | increase in the amount of ^125I that remained in solution relative to the control (^125I labeled TGF-β1; relative to control) [%] | binding competition vs TGF-β1 for soluble TβRII, effective concentration range (TβRII) | blocking of growth inhibition of TGF-β1 [2] | luciferase activity in the presence of TGF-β1 [3] | blocking of TGF-β1 stimulation of CHO cell growth [4] | amount of radioactivity incorporated into CHO cells (CHO cells; Experiment 1, average of duplicate assays) | amount of radioactivity incorporated into CHO cells (CHO cells; Experiment 2, average of duplicate assays) | growth of CHO cells (in words) (CHO cells; two experiments) | blocking of binding of ^125I labeled TGF-β1 to TβRIII (in words) (TβRIII) |
| --- | --- | --- | --- | --- | --- | --- | --- | --- | --- | --- | --- | --- | --- | --- | --- |
| CC1C2C=CC1C(c1c3ccc(=O)c(O)c-3oc3c(O)c(O)ccc13)C2C(=O)O (stereo not shown) [NSC 119913] | no ppt | form less or no precipitate | 27614 | 27960 |  |  |  |  |  |  |  |  |  |  |  |
| O=C(O)c1c(Br)c(Br)c(Br)c(Br)c1C1c2ccc(O)cc2Oc2cc(O)ccc21 [NSC 119889] | no ppt | form less or no precipitate | 27159 | 29239 | 38324 | 746 | ~40 |  | blocks growth inhibition of TGF-β1 | marked reduction in luciferase activity | This stimulation was blocked | 1475 | 936 | did not substantially inhibit growth of CHO cells | blocks binding of the ^125I labeled TGF-β1 to TβRIII |
| O=C(O)C1CCCCC1c1c2ccc(=O)c(O)c-2oc2c(O)c(O)ccc12 (stereo not shown) [NSC 119910] | ppt | form precipitates | 24924 | 20587 |  |  |  |  |  |  |  |  |  |  |  |
| Oc1cc(O)c2c(c1)OC(c1ccc(O)c(O)c1)C(OC1(c3cc(O)c(O)c(O)c3)Oc3cc(O)cc(O)c3C(O)C1O)C2 (stereo not shown) [NSC 143101] | no ppt |  |  |  | 34567 |  |  |  |  |  |  |  |  |  |  |
| O=C(O)CCc1c2ccc(=O)c(O)c-2oc2c(O)c(O)ccc12 [NSC 119915] | ppt | form precipitates | 25308 | 20770 | 33660 | 726 |  |  | blocks growth inhibition of TGF-β1 |  |  |  |  |  |  |

Further lines, with some results ahead:

| Solubility [1] | precipitate formation when diluted into water [1] | Amount of ^125I labeled TGF-β1 in solution (^125I labeled TGF-β1; second value column) | Amount of ^125I labeled TGF-β1 in solution (^125I labeled TGF-β1; third value column) | Amount of ^125I labeled TGF-β1 in solution (^125I labeled TGF-β1; first value column) | Amount of ^125I labeled TGF-β1 bound to TβRIII (TβRIII) | increase in the amount of ^125I that remained in solution relative to the control (^125I labeled TGF-β1; relative to control) [%] | binding competition vs TGF-β1 for soluble TβRII, effective concentration range (TβRII) | Compound | blocking of growth inhibition of TGF-β1 [2] | luciferase activity in the presence of TGF-β1 [3] | blocking of TGF-β1 stimulation of CHO cell growth [4] | amount of radioactivity incorporated into CHO cells (CHO cells; Experiment 1, average of duplicate assays) | amount of radioactivity incorporated into CHO cells (CHO cells; Experiment 2, average of duplicate assays) | growth of CHO cells (in words) (CHO cells; two experiments) | blocking of binding of ^125I labeled TGF-β1 to TβRIII (in words) (TβRIII) |
| --- | --- | --- | --- | --- | --- | --- | --- | --- | --- | --- | --- | --- | --- | --- | --- |
| no ppt |  |  |  | 32155 |  |  |  | O=C(O)c1c[nH]c2cc(OCc3ccccc3)ccc2c1=O [NSC 306960] | did not block the growth inhibition activity of TGF-β1 | did not inhibit TGF-β1 induction of luciferase activity |  |  |  |  |  |
|  |  |  |  |  |  |  | nanomolar range | TGF-β1: non-labeled TGF-β1 protein used as competitor for TβRII in the binding competition curve |  |  |  |  |  |  |  |
| ppt | form precipitates | 25748 | 24534 | 33990 | 769 |  |  | O=C(O)/C=C/c1c2ccc(=O)c(O)c-2oc2c(O)c(O)ccc12 [NSC 119911] | blocks growth inhibition by TGF-β1 |  |  |  |  |  |  |
